Data on 16 compounds can be found in patent publication US4659732A, “Lipoxygenase inhibiting 1-arylalkyl-, 1-arylthio-, and 1-aryloxypyrazole-4,5-diones” (Bayer Aktiengesellschaft, priority 1984, dated 1987).

One series relates to cyclooxygenase. The following applies: known lipoxygenase inhibitors; cited from earlier work.
The conditions of series [1]: administered systemically (for example orally); cited from earlier work.
A further series relates to myocardial infarct. The series is described as follows: Myocardial infarct after acute ligature of a coronary artery. Type of series: in vivo. The following applies: dog. The protocol: The actions of various pyrazoledione derivatives on the experimental myocardial infarct in the dog were investigated after acute ligature of a coronary artery. In pentobarbital-anaesthetised dogs, the proximal left anterior descending coronary artery (LAD) […] occluded for 6 hours. The artery was not reperfused. One hour prior to ligature, the test compounds in 1% tyclose suspension were administered intraduodenally as a bolus. The same procedure was adopted for the controls, except that no active compound was administered. The size of the infarct and the area of perfusion of the LAD were determined biochemically by means of a dual perfusion method using Evans Blue and triphenyltetrazolium chloride. […] This could be observed both with respect to the absolute infarct weight and the infarct size relative to the weight of the left ventricule. Initially, the blood pressure decreased as a result of the coronary ligature, and this led to a reflectory increase in the heart rate.

The next series deals with T1, 5-lipoxygenase (Homo sapiens, UniProt P09917).
T1 construct: The human polymorphonuclear leucocytes metabolize the arachidonic acid to give 5-hydroxy-5,8,11,14-eicosatetraenoic acid (5-HETE) and leucotriene B4; endogenous in cells; host or cells: human PMN leucocytes from heparinized whole blood
T1 sequence (P09917 1-674): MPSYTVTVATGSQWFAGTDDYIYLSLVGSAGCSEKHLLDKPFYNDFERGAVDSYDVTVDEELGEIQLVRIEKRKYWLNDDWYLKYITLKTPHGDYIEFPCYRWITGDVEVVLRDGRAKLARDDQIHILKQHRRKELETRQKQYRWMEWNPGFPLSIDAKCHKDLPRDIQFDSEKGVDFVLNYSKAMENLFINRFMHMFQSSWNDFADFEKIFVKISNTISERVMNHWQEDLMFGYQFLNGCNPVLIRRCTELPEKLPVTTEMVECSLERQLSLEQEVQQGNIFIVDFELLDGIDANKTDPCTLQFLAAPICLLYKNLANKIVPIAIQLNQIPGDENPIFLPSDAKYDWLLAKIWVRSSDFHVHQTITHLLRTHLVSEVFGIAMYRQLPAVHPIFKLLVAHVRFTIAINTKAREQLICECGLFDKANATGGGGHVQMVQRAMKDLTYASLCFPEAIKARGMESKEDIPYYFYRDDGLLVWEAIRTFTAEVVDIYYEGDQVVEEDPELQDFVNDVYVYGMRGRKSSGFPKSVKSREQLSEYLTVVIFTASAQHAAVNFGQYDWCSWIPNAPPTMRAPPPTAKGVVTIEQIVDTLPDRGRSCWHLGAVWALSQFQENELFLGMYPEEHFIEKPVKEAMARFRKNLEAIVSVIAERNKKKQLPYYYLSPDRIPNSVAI
The series is described as follows: Inhibition of LTB4 synthesis in human PMN leucocytes (A 23 187 stimulated). Type of series: cell-based. The following applies: for inhibition at 0.1 µg/mL: 0.1 μg/ml; for inhibition at 0.5 µg/mL: 0.5 μg/ml; for inhibition at 1 µg/mL: 1 μg/ml; for inhibition at 5 µg/mL: 5 μg/ml. The protocol:
The 5-lipoxygenase responsible for the biosynthesis of the leucotrienes B4, C4 and D4 is inhibited selectively at low concentrations. […] Inhibition of the liberation of 5-HETE and leucotriene B4 from the leucocytes constitutes a measure of the lipoxygenase-inhibiting effect of the compounds according to the invention (see Table 1). The test with the human leucocytes was carried out in accordance with Borgeat and Samuelsson (J. Biol. Chem. 254, 2643, 1979, and Proc. Natl. Acad. Sci. USA, 76, 2148, 1979). The human PMN leucocytes (>95%) used in the present example were obtained from heparinized whole blood by dextran sedimentation and subsequent density gradient separation (Ficoll-Paque) (see A. Boyum, Scand. J. Immunol., 5, Suppl. 5, 9, 1976). 2×10^7 cells/ml were suspended in Ca^2+ -containing Dulbecco phosphate buffer and stimulated in the presence and absence of lipoxygenase inhibitors, with the calcium ionophore A 23 187. After 15 minutes, the lipoxygenase products were extracted from the acidified incubation medium and separated by means of HPLC.

In the next series the test system is leucocyte stickiness. The series is described as follows: Stickiness of leucocytes in hamster cheek pouch. Type of series: in vivo, Male Syrian golden hamsters. The following applies: Effect after administration of 1 mg/kg i.a. The text has this: The reduction in the leucocyte stickiness is also responsible for the decrease in ischaemic areas since, after treatment with the compounds to be used according to the invention, the leucocytes pass through the microcirculatory region of these areas without reducing the supply to the corresponding tissue by totally or temporarily closing small vessels or capillaries.
The number of leucocytes which pass through a certain section of a vessel serves as a simple model for measuring the stickiness of leucocytes (Bray, M. A. et al., Prostaglandins, 22, 213, 1981). The less sticky these cells are, the greater is the number of leucocytes counted.
Male Syrian golden hamsters (80-100 g) were anaesthetized with nembutal (i.p.; 60 mg/kg). After fixing a PE 10 catheter in the A.femoralis, the animal is laid on a Duling dissection stage (MVR 5, 423, 1973) and the right cheek pouch is drawn out by inserting a Q-tip. It is carefully drawn into that part of the stage which is intended for this purpose, and is stretched out and fixed. From the beginning of the preparation procedure, the prepared cheek pouch is rinsed over with 5 ml/minute of superfusate. The temperature of the solution is 36° C. While protecting the vessels, the upper layer of tissue is cut longitudinally and folded to the side. Under about 200 times magnification, an area of about 1 cm^2 of connective tissue is carefully exposed. The animal, together with the dissection stage, is placed on the microscope stage. A thermocouple is inserted into the left cheek pouch. The body temperature of the animal is monitored in this manner and maintained within +0.3° C. with the aid of an IR lamp (240 watt).
Measurement of the leucocyte stickiness is carried out under a magnification of about 500 times. A small vein (30-40 μm .phi.) is selected in the exposed area. Over a certain section of this vessel, the number of leucocytes passing by per unit time (min.) is counted.

`NC1=NN(c2cccc(C(F)(F)F)c2)CC1` [3-amino-1-(3-trifluoromethylphenyl)-2-pyrazoline]: the cyclooxygenase inhibition result in the series on cyclooxygenase is recorded as “act as cyclooxygenase inhibitors either simultaneously or only at very high concentrations”. For the same compound, the toxic side effects entry in series [1] is recorded as “toxic side effects”.
Take `C1=CSc2ccccc2N1` [4H-1,4-benzothiazine]: in the series with myocardial infarct (LAD ligature, intraduodenal), the haemodynamic effects result is “no haemodynamic effects”. The infarct size result in the series on myocardial infarct (gradual LAD occlusion 6 hours, intraduodenal bolus one hour prior to ligature, absolute infarct weight and relative to left ventricle weight) is on record as “substantially reduced the infarct size”.
`CCCCCC=CCC=CCC=CCC=CCCCC(=O)O` [5,8,11,14-eicosatetraenoic acid]: in the series with cyclooxygenase, the cyclooxygenase inhibition entry was “act as cyclooxygenase inhibitors either simultaneously or only at very high concentrations”.
On 5-lipoxygenase, `CC1=NN(CCOc2ccc3ccccc3c2)C(=O)C1=O` [Example 1, 3-Methyl-1-[2-(2-naphthyloxy)-ethyl]-2-pyrazole-4,5-dione] showed an inhibition at 0.1 µg/mL of 29%, an inhibition at 0.5 µg/mL of 60%, an inhibition at 1 µg/mL of 85% and an inhibition at 5 µg/mL of 100%. Also, the “Inhibition of leucocyte stickiness” value with leucocyte stickiness is “inhibition”.
At 5-lipoxygenase, `CC(C)(C)C1=NN(CCOc2ccccc2)C(=O)C1=O` [Example 2] registered an inhibition at 1 µg/mL of 12%. For the same compound, in the series on leucocyte stickiness, the “Inhibition of leucocyte stickiness” value is on record as “inhibition”.
For the compound `COCC1=NN(C(C)c2ccc(Cl)c(Cl)c2)C(=O)C1=O` (stereo not drawn) [Example 3], on 5-lipoxygenase, testing at 0.1 µg/mL gave an inhibition of 6%, the inhibition at 0.5 µg/mL is 20%, the inhibition at 1 µg/mL amounted to 37% and the inhibition at 5 µg/mL turned out to be 100%. In addition, the “Inhibition of leucocyte stickiness” value in the series with leucocyte stickiness was “no effect”.
Taken in the same sequence, the figures for `COCC1=NN(CCOc2ccc3ccccc3c2)C(=O)C1=O` [Example 4] were 15%, 47%, 60%, 100% and “inhibition”.
With `CC1=NN(C(C)c2ccc(Cl)c(Cl)c2)C(=O)C1=O` (stereo not drawn) [Example 5], at 5-lipoxygenase, the inhibition at 0.5 µg/mL was 12%, 1 µg/mL produced 29% inhibition and the inhibition at 5 µg/mL is 84%. Further, in the series with leucocyte stickiness, the “Inhibition of leucocyte stickiness” value is on record as “no action”.
`CC1=NN(CCOc2ccccc2)C(=O)C1=O` [Example 6]: on 5-lipoxygenase, the inhibition at 0.1 µg/mL is 38%, the inhibition at 0.5 µg/mL came to 60%, at 1 µg/mL the inhibition was 88% and the inhibition at 5 µg/mL stood at 100%. Moreover, the “Inhibition of leucocyte stickiness” value in the series on leucocyte stickiness was “no effect”.
With `CC1=NN(C(C)c2ccc3c(c2)CCCC3)C(=O)C1=O` (stereo not drawn) [Example 7], on 5-lipoxygenase, the inhibition at 0.5 µg/mL is 10%, the inhibition at 1 µg/mL came out at 21% and the inhibition at 5 µg/mL is 100%. Also, the “Inhibition of leucocyte stickiness” value with leucocyte stickiness is “inhibition”.
`O=C1C(=O)N(CCOc2ccc3ccccc3c2)N=C1CC1CCCCC1` [Example 8]: at 5-lipoxygenase, the inhibition at 0.5 µg/mL is 10%, the inhibition at 1 µg/mL was 35% and testing at 5 µg/mL gave an inhibition of 100%. Moreover, the “Inhibition of leucocyte stickiness” value with leucocyte stickiness is “no action”.
At 5-lipoxygenase, `CC1=NN(C(C)c2cccc(C(F)(F)F)c2)C(=O)C1=O` (stereo not drawn) [Example 9] registered an inhibition at 1 µg/mL of 40% and an inhibition at 5 µg/mL of 73%. The “Inhibition of leucocyte stickiness” value in the series on leucocyte stickiness is reported as “no effect”.
As to `CCCC1=NN(CCOc2ccc3ccccc3c2)C(=O)C1=O` [Example 10], on 5-lipoxygenase, the inhibition at 0.5 µg/mL turned out to be 12%, at 1 µg/mL the inhibition was 56% and the inhibition at 5 µg/mL amounted to 100%. Moreover, the “Inhibition of leucocyte stickiness” value in the series on leucocyte stickiness was “inhibition”.
On 5-lipoxygenase, `CC1=NN(C(C)C2CCCCC2)C(=O)C1=O` (stereo not drawn) [Example 11] came in with an inhibition at 1 µg/mL of 29% and an inhibition at 5 µg/mL of 32%. In the series on leucocyte stickiness, the “Inhibition of leucocyte stickiness” value is “inhibition”.
Turning to `CC(Cc1ccc(O)c(O)c1)C(C)Cc1ccc(O)c(O)c1` (stereo not drawn) [nordihydroguaretic acid], the cyclooxygenase inhibition entry with cyclooxygenase is recorded as “act as cyclooxygenase inhibitors either simultaneously or only at very high concentrations”.
Turning to `O=C1CCN(c2ccccc2)N1` [phenidone], in the series with cyclooxygenase, the cyclooxygenase inhibition entry is “act as cyclooxygenase inhibitors either simultaneously or only at very high concentrations”.

As a reminder, the inhibition is the drop in the measured response relative to a control, in per cent. Low values mean a weak effect, high ones a strong effect.
